# pIC50: −log10 of the molar value.
# Target: T1, Myeloperoxidase (Homo sapiens, UniProt P05164)
# T1 sequence (P05164 whole entry): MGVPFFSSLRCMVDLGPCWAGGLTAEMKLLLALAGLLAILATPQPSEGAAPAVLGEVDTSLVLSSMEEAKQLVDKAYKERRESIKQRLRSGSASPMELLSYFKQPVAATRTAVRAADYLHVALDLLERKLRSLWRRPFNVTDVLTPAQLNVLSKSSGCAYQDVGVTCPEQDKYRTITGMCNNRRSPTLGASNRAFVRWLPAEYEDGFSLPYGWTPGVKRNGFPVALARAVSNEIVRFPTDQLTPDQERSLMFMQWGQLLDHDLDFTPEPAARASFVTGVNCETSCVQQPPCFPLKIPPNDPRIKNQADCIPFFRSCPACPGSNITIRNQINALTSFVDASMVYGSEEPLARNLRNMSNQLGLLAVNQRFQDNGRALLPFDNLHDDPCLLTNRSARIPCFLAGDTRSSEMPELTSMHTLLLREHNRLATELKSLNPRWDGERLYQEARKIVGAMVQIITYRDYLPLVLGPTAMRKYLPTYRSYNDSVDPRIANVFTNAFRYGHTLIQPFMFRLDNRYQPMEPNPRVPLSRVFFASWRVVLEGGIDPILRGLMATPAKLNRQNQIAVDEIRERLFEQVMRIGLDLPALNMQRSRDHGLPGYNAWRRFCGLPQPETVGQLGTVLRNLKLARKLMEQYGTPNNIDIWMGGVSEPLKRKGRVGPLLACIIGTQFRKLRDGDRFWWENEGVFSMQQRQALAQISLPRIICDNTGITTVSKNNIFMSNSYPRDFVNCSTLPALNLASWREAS
# Test: Activity Assay
# Conditions: pH 7.4; 21 °C
# Description: The chlorination activity of MPO was determined by measuring the production of hypocholorous acid.
row,pIC50,SMILES
1,6.70,"O=c1[nH]c(=S)n(C[C@H]2CCCO2)c2nc[nH]c12 [2-Thioxanthine, TX4]"
2,6.40,"COCCn1c(=S)[nH]c(=O)c2[nH]cnc21 [2-Thioxanthine, TX5]"
3,6.40,"O=c1[nH]c(=S)n(CC2CCCO2)c2nc[nH]c12 (centres undefined) [2-Thioxanthine, TX3]"
4,6.00,"CC(C)Cn1c(=S)[nH]c(=O)c2[nH]cnc21 [2-Thioxanthine, TX1]"

# From BindingDB's records for doi:10.1074/jbc.M111.266981 (AstraZeneca, 2011)
